The record followed here is patent publication US20220169603A1, “NOVEL SALTS, CRYSTALLINE FORMS AND PREMIX OF HYPOLIPIDEMIC AGENT” (Cadila Healthcare Ltd., priority 2019, published 2022).

Series [1] deals with serum triglyceride levels. Kind of series: Comparative efficacy study (triglyceride lowering effects) in Swiss albino mice. The class given is in vivo. The note with it: for % Change Day 6 vs Day 0 (serum triglycerides) / % Change Vs control (serum triglycerides) / Serum triglycerides Day 6: 1 mg/kg free acid equivalent, oral, once daily for six days; for % Change Vs control (serum triglycerides): vs vehicle control; for reduction in serum triglyceride levels as compared to vehicle control group: p.o., six days; for Serum triglycerides Day 0: Day 0, before treatment, male Swiss albino mice, 6 per group; for Serum triglycerides Day 6: Day 6, one hr after dose. As to the method: The in-vivo efficacy of test compound was evaluated in Swiss albino mice. Anti-dyslipidemic drugs have been reported to lower circulating levels of triglyceride in Swiss albino mice through their effect on genes involved in the peroxisomal fatty acid beta oxidation via PPAR alpha agonism. Therefore, this species is preferred for evaluation of their efficacy in lowering circulating triglyceride (TG) levels.
In this experiment, ten to eleven week old male Swiss albino mice were issued and kept for acclimatization. Near the end of the acclimatization period, animals judged to be suitable for testing were bled under light anesthesia and serum samples were analyzed for serum triglyceride levels.
Test compounds were formulated at specified doses in vehicle (MiliQ Water). The animals were dosed orally, once daily in the morning during six days, starting from next day of grouping with vehicle or test compound. The animals were weighed prior to dosing, and based on these weights; the volume of administration was calculated. The volume of formulation administered to each mouse was 10 ml/kg body weight.
On day 6, one-hr after the dose administration, blood (0.25 ml) was collected from retro-orbital sinus of the anaesthetized animals. Serum was separated by centrifugation. Serum was analyzed for triglyceride levels. Analysis for serum triglyceride levels was performed using Spectrophotometer and commercially available kit. Calculations for determination of % change and % reduction in serum TG levels (Table 3) were performed using MS Excels sheet.

The nature of series [2]: Stability of selected compounds measured by HPLC purity over 6 months. Format: physicochemical. As to the method:
• Column: YMC-pack ODS-AM (type L1) or equivalent; 250×4.6 mm, 5 μm • Wave length: 294 nm • Column temp.: 30° C. • Mobile phase: [Ammonium acetate buffer: Acetonitrile]/[55:45] • Flow rate: 1 ml/min • Injection vol.: 5 μl • Retention time: About 10 mints. • Run time: 60 mints.

Series [3] is described as follows: Stability study of Saroglitazar free acid (purity and % of impurity on storage). Format: physicochemical. The source says: Further the Saroglitazar free acid as disclosed in WO03009841 was always obtained in liquid form.

For `CCO[C@@H](Cc1ccc(OCCn2c(C)ccc2-c2ccc(SC)cc2)cc1)C(=O)[O-].[Na+]` [Example 6, (S)-2-ethoxy-3-(4-(2-(2-methyl-5-(4-(methylthio)phenyl)-1H-pyrrol-1-yl)ethoxy)phenyl)propanoic Acid Sodium Salt], in series [1], the “% Change Day 6 vs Day 0 (serum triglycerides)” value is −34.4 ± 10.5%, the “% Change Vs control (serum triglycerides)” value (“% Change Vs control” for short) is recorded as −62.7 ± 6.0%, the “Serum triglycerides Day 0” value stood at 59.6 ± 5.4 mg/dL and the “Serum triglycerides Day 6” value amounted to 39.0 ± 7.5 mg/dL. Further, in series [1] (1 mg/kg), the “reduction in serum triglyceride levels as compared to vehicle control group” value (“reduction in serum triglyceride levels” below) is given as 62.7%.

Regarding `CCO[C@@H](Cc1ccc(OCCn2c(C)ccc2-c2ccc(SC)cc2)cc1)C(=O)[O-].[Li+]` [Example 12, (S)-2-ethoxy-3-(4-(2-(2-methyl-5-(4-(methylthio)phenyl)-1H-pyrrol-1-yl)ethoxy)phenyl)propanoic Acid Lithium Salt], in series [2], the “HPLC (% purity) At 0 month” value stood at 96.82% and the “HPLC (% purity) After 6 months” value was found to be 95.50%.

Take `CCO[C@@H](Cc1ccc(OCCn2c(C)ccc2-c2ccc(SC)cc2)cc1)C(=O)O` [Saroglitazar, (S) 2-Ethoxy-3-(4-{2-[2-methyl-5-(4-methylthiophenyl)-pyrrol-1-yl]-ethoxy}-phenyl)-propionic acid]: in series [3] (at 0-5° C.), the “% of impurity (RT-~22.0 min) AFTER 6 DAYS” value is listed as “(0.598%)”, the “PURITY AFTER 6 DAYS” value is 98.44%, the “% of impurity (RT-~22.0 min) AFTER 17 DAYS” value was “(0.631%)” and the “PURITY AFTER 17 DAYS” value is on record as 98.39%. In series [3] (at 0-5° C.), the “% of impurity (RT-~22.0 min), initial” value is “(0.573%)” and the “INITIAL PURITY” value worked out at 98.11%. Besides, in series [3] (at 25~30° C.), the “% of impurity (RT-~22.0 min) AFTER 6 DAYS” value is reported as “(0.770%)”, the “PURITY AFTER 6 DAYS” value is given as 98.12%, the “% of impurity (RT-~22.0 min) AFTER 17 DAYS” value is “(0.850%)” and the “PURITY AFTER 17 DAYS” value was 97.87%. For the same compound, in series [3] (at 25~30° C.), the “% of impurity (RT-~22.0 min), initial” value was “(0.573%)” and the “INITIAL PURITY” value came out at 98.11%. Moreover, the “stability (in words)” value in series [3] (room temperature conditions) is “less stable”. In addition, in series [1], the “% Change Day 6 vs Day 0 (serum triglycerides)” value was determined as 8.7 ± 9.0%, the “% Change Vs control” value is given as −38.2 ± 5.1%, the “Serum triglycerides Day 0” value is 61.8 ± 7.4 mg/dL and the “Serum triglycerides Day 6” value was found to be 65.9 ± 7.7 mg/dL. Moreover, the “reduction in serum triglyceride levels” value in series [1] (1 mg/kg) is 38.2%.

On to “(S)-2-ethoxy-3-(4-(2- (2-methyl-5-(4-(methylthio)phenyl)-1H-pyrrol-1-yl)ethoxy)phenyl)propanoic Acid Magnesium Salt [Example 31]”, for which, in series [2], the “HPLC (% purity) At 0 month” value came out at 96.95% and the “HPLC (% purity) After 6 months” value is on record as 95.55%.

As for “(S)-2-ethoxy-3-(4-(2-(2-methyl-5-(4-(methylthio)phenyl)-1H-pyrrol-1-yl)ethoxy)phenyl)propanoic Acid Aluminum Salt [Example 14]”, in series [2], the “HPLC (% purity) At 0 month” value was 96.79% and the “HPLC (% purity) After 6 months” value is given as 94.94%. For the same compound, in series [1], the “% Change Day 6 vs Day 0 (serum triglycerides)” value is −35.1 ± 10.9%, the “% Change Vs control” value is −63.1 ± 6.2%, the “Serum triglycerides Day 0” value turned out to be 61.9 ± 7.4 mg/dL and the “Serum triglycerides Day 6” value amounted to 37.4 ± 3.4 mg/dL. Further, the “reduction in serum triglyceride levels” value in series [1] (1 mg/kg) is given as 63,1%.

Consider “(S)-2-ethoxy-3-(4-(2-(2-methyl-5-(4-(methylthio)phenyl)-1H-pyrrol-1-yl)ethoxy)phenyl)propanoic Acid Magnesium Salt [Example 28]”, for which, in series [2], the “HPLC (% purity) At 0 month” value is given as 93.08% and the “HPLC (% purity) After 6 months” value is recorded as 90.72%. In series [1], the “% Change Day 6 vs Day 0 (serum triglycerides)” value is listed as −47.7 ± 10.2%, the “% Change Vs control” value was −70.2 ± 5.8% and the “Serum triglycerides Day 0” value was 64.3 ± 8.6 mg/dL. In series [1] (1 mg/kg), the “Serum triglycerides Day 6” value was found to be 30.0 ± 3.8 mg/dL.

As to “(S)-2-ethoxy-3-(4-(2-(2-methyl-5-(4-(methylthio)phenyl)-1H-pyrrol-1-yl)ethoxy)phenyl)propanoic Acid Magnesium Salt [Example 29]”, in series [2], the “HPLC (% purity) At 0 month” value turned out to be 97.68% and the “HPLC (% purity) After 6 months” value is given as 94.63%. In series [1], the “% Change Day 6 vs Day 0 (serum triglycerides)” value is reported as −35.5 ± 7.5%, the “% Change Vs control” value is given as −63.3 ± 4.3% and the “Serum triglycerides Day 0” value amounted to 59.4 ± 5.0 mg/dL. Also, the “Serum triglycerides Day 6” value in series [1] (1 mg/kg) stood at 37.0 ± 3.5 mg/dL.

“(S)-2-ethoxy-3-(4-(2-(2-methyl-5-(4-(methylthio)phenyl)-1H-pyrrol-1-yl)ethoxy)phenyl)propanoic Acid Magnesium Salt [Example 32]”: in series [2], the “HPLC (% purity) At 0 month” value worked out at 97.10% and the “HPLC (% purity) After 6 months” value is 95.78%. Further, in series [1], the “% Change Day 6 vs Day 0 (serum triglycerides)” value is −44.5 ± 10.4%, the “% Change Vs control” value is on record as −68.4 ± 5.9% and the “Serum triglycerides Day 0” value amounted to 61.9 ± 7.7 mg/dL. The “Serum triglycerides Day 6” value in series [1] (1 mg/kg) is 32.6 ± 4.9 mg/dL.

In the case of “(S)-2-ethoxy-3-(4-(2-(2methyl-5-(4-(methylthio)phenyl)-1H-pyrrol-1-yl)ethoxy)phenyl)propanoic Acid Calcium Salt [Example 16]”, in series [2], the “HPLC (% purity) At 0 month” value came to 96.83% and the “HPLC (% purity) After 6 months” value stood at 96.76%. In addition, in series [1], the “% Change Day 6 vs Day 0 (serum triglycerides)” value is given as −33.9 ± 14.3%, the “% Change Vs control” value was −62.4 ± 8.1%, the “Serum triglycerides Day 0” value stood at 61.3 ± 6.4 mg/dL and the “Serum triglycerides Day 6” value turned out to be 38.2 ± 5.6 mg/dL. In addition, the “reduction in serum triglyceride levels” value in series [1] (1 mg/kg) was determined as 62.4%.
